Patent US6950757B2, “Screening methods for identifying ligands” (Emerald BioStructures, Inc., priority 2001, dated 2005)
One block for each molecule: values may come before it.

Experiments:
Assay type in all cases: binding
[1] = biological target: T1, topo70-DNA covalent complex (Form 7 apo-crystals) (Homo sapiens, UniProt P11387); assay: Crystal cracking of Form 7 crystals (crystal-cracking assay); conditions: 16° C., approximately 3 hours
T1 construct: human topoisomerase I construct of residues Lys175 to Phe765; made in house; host or cells: baculovirus-insect cell (SF9)
T1 sequence (P11387 175-765): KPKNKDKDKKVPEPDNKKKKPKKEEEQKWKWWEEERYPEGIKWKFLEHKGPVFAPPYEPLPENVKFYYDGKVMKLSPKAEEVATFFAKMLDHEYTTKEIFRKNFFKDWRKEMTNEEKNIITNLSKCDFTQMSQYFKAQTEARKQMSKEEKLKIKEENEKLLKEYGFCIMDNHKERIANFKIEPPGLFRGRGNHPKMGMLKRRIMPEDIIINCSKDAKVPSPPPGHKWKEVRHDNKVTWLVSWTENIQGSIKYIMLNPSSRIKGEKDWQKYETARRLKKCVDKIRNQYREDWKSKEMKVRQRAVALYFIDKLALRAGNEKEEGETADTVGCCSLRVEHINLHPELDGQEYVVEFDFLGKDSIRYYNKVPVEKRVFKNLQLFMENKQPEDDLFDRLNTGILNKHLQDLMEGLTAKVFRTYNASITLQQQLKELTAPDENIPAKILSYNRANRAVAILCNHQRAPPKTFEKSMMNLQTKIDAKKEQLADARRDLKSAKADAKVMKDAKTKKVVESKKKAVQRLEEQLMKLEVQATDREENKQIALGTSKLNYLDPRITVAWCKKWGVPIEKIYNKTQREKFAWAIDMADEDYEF
Description: Cracking of the crystal after exposure to the potential ligand(s) indicates binding between at least one potential ligand and the macromolecule. This assay is referred to herein as the “crystal-cracking” assay.
The crystal cracking assay of the invention involves the development of optimized crystal growth conditions that depend on the absence of the ligand to produce a supply of macromolecule crystals, referred to herein as apo-crystals, then soaking the apo-crystals in a solution containing one or more potential ligands. If a ligand actually binds to the macromolecule, it initiates a conformational change in the crystal resulting in an observable cracking of the crystal.
Several rounds of similar optimization screening experiments eventually led to the identification of a definitive crystallization condition that produces crystals of the topo70-DNA covalent complex only in the absence of Topotecan (designate Form 7). The Form 7 crystals were grown at 16° C. under optimized conditions by vapor diffusion equilibration against a 500 microliter reservoir solution of 10% PEG 8000, 100 mM Tris-HCl pH 8.0, 100 mM Na/K phosphate pH 6.2, 100 mM KCl, and 10 mM DTT. The sitting drop crystallizations were prepared in drop chambers by mixing 2 microliters of reservoir solution with 2 microliters of 0.1 mM duplex DNA substrate in 6 mM NaCl, and 2 microliters 4 mg/ml topo70 in 10 mM Tris-HCl pH 7.5, 1 mM EDTA, and 1 mM DTT.
In order to test the effects of Topotecan and other topo I poisons on the integrity of Form 7 crystals, crystallization drops containing Form 7 crystals were subjected to the following treatments:
1. Injection of 3 microliters of a buffer solution containing 100 mM MES pH 6.3, and 100 mM Na/K phosphate pH 6.2 (buffer only control).
2. Injection of 3 microliters of 100 mM MES pH 6.3, 100 mM Na/K phosphate pH 6.2, and 0.32 mM Topotecan.
3. Injection of 3 microliters of 100 mM MES pH 6.3, 100 mM Na/K phosphate pH 6.2, 13% v/v DMSO, and 0.64 mM camptothecin.
4. […]

[2] = biological target: T2, topo70-DNA covalent complex (Homo sapiens, UniProt P11387); assay: Crystal growth assay (crystal growth dependence on ligand), T80P CBS-cross solutions; conditions: 16° C.
T2 construct: human topoisomerase I construct of residues Lys175 to Phe765; made in house; host or cells: baculovirus-insect cell (SF9)
T2 sequence (P11387 175-765): T1 sequence (P11387 175-765)
Protocol: The chemical components of each crystallization formulation were classified as being either a crystallant, buffer, or salt. The various crystallants were as follows:
CBS-cross crystallization screening formulations were prepared with all possible combinations of crystallants, buffers and salts.
In one set of crystallization experiments, the T80P crystallization screen was used in a Combinatorial Clover Plate developed by Emerald BioStructures, Inc. [Kim et al.], which allows for the rapid set up of multiple crystallizations in a common vapor diffusive environment.
The 24 reservoir chambers of the Combinatorial Clover Plate were filled with 1.0 milliliter of each of the 24 different T80P formulations. Once the T80P formulations had been individually placed into the reservoir chambers, 2 microliters of each individual crystallization screening formulation was placed into each of the four the sitting drop chambers that are connected to the common reservoir by dedicated vapor diffusion channels. This was followed by the addition of 1 microliter of duplex suicide oligonucleotide substrate (0.05 mM duplex, 6 mM NaCl) into the drop chamber.
The duplex was mixed with the crystallization screening solution by repeated pipetting. This was followed by the addition 0.1 microliter of 10 mM Topotecan to the upper two drop chambers of each crystallization clover. […]

[3] = biological target: T2, topo70-DNA covalent complex; assay: Crystallization trials with VII-2 solutions in the absence or presence of Topotecan; conditions: condition VII-2 #3; 1 microliter of 1 mM ligand in water vs water only; 16° C., several days
Protocol: The four different VII-2 formulations each contained one or more of the chemical components found in the lead crystallization conditions, plus additional components such as 10 mM DTT. The four VII-2 crystallization conditions were as follows:
A Cryschem tray was used to screen each of the four VII-2 crystallization solutions for their ability to promote crystallization of topo70-DNA complexes in the absence or presence of Topotecan, an analogue of camptothecin. The crystallization experiments were set up by first placing 500 microliters of the VII-2 screening solutions in duplicate individual reservoir chambers. Next, 3 microliters of each reservoir solution was placed into the drop chambers. The drop chamber solutions were then mixed by pipetting with 1.5 microliters of 0.05 mM suicide duplex oligonuceotide substrate in 6 mM NaCl. One microliter of 1 mM Topotecan in pure water or 1 microliter of pure water only was added to each of the duplicate drop chambers. Then 2 microliters of topo70 at 3 mg/ml in 10 mM Tris-HCl pH 7.5, 1 mM EDTA, and 1 mM DTT was added to each of the drop chambers. The crystallization tray was sealed with crystal clear sealing tape (marketed by Manco, Inc. Avon, Ohio), and incubated at 16° C.

[4] = injection of 3 microliters of 0.64 mM ligand in 100 mM MES pH 6.3, 100 mM Na/K phosphate pH 6.2, 13% v/v DMSO

SMILES: CC[C@@]1(O)C(=O)OCc2c1cc1n(c2=O)Cc2cc3cc4c(cc3nc2-1)OCO4 [10,11 MDO-camptothecin, 10,11 MDO camptothecin]
effect on integrity of Form 7 crystals (crystal cracking) [1, 4]: had dissolved leaving only a trace pile of crystal bits

ligand-dependent crystal growth of ternary complex crystals ([2]; T80P #10, 0.5 microliter of 1 mM AG260 in 100% DMSO or 0.3 microliter of 1 mM MJ-II-38 in 90% v/v DMSO, several days): plate like crystals grew
SMILES: O=C(O)CCCn1c2c(c3ccccc3c1=O)C(=O)c1ccccc1-2 [MJ-II-38]

SMILES: CC[C@@]1(O)C(=O)OCc2c1cc1n(c2=O)Cc2cc3c(CN(C)C)c(O)ccc3nc2-1 [Topotecan]
growth of putative topo70-DNA covalent complex crystals (Form 7) with ligand present vs absent [3]: grow in condition VII-2 #3 only when Topotecan was absent
ligand-dependent crystal growth (Form 9 crystals) ([2]; T80P #9 and T80P #10, 0.1 microliter of 10 mM ligand, day 28, no crystals when ligand absent): produced crystals of distinct block morphology when Topotecan was present
effect on integrity of Form 7 crystals (crystal cracking) ([1]; injection of 3 microliters of 0.32 mM ligand in 100 mM MES pH 6.3, 100 mM Na/K phosphate pH 6.2): showed visible signs of micro cracks throughout the crystals

SMILES: CC[C@@]1(O)C(=O)OCc2c1cc1n(c2=O)Cc2cc3ccccc3nc2-1 [camptothecin]
effect on integrity of Form 7 crystals (crystal cracking) [1, 4]: showed visible signs of micro cracks throughout the crystals
